Experimental data from patent US6255314A, “Cancerous metastasis inhibitors containing uracil derivatives” (Taiho Charmaceutical Co., Ltd., priority 1996, dated 2001).
Counter-ions that a name gives are not always drawn. Like-named read-outs stand apart in the source and are kept apart here.

How the values were obtained:
[1] = target: T1, thymidine phosphorylase obtained from human placenta (Homo sapiens, UniProt P19971); test: Test 1 (Thymidine Phosphorylase Inhibiting Effects); format: biochemical
T1 construct: thymidine phosphorylase obtained from human placenta in a highly purified form; from tissue; host or cells: human placenta
T1 sequence (P19971 11-482): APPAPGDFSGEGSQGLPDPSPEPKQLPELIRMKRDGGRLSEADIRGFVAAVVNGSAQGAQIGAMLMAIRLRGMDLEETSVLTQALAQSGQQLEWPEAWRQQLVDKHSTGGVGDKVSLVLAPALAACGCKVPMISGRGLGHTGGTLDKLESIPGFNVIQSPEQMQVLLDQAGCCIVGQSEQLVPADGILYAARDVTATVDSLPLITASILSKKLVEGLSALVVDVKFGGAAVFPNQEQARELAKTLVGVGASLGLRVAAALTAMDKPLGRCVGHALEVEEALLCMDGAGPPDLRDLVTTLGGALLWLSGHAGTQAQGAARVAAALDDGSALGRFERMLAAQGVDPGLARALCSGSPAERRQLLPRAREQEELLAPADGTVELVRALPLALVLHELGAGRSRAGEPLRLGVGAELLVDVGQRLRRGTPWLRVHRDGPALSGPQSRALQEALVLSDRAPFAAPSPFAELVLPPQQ

[2] = test system: human colon cancer strain Co-3; test: Test 3 (Metastasis Inhibiting Effects on Liver Metastasis Model); format: in vivo, SPF KSN-nu/nu male mouse; human colon cancer; details: oral; for Number of metastasized mice: 6 courses (5 days on, 2 days off), control 4/6; for Metastasis inhibition rate (%): liver metastasis, 6 courses, vs control
Experimental: About 100 mm^3 of human colon cancer strain Co-3 were transplanted to the cecum of each SPF KSN-nu/nu male mouse (seven weeks old). Two weeks after the transplant, a primary carcinoma lesion was removed by surgically cutting off the cecum. […] The administration was conducted for 6 courses, each consisting of administration of 5 straight days followed by a suspension of administration for 2 days. To mice in a control, only 0.5% (w/v) hydroxypropyl methylcellulose solution was orally administered. On the day following the completion of the administration, each mouse was sacrificed and metastasis to the liver was determined based on autopsy.

[3] = test system: TMK-1 (human gastric cancer) cells; test: Test 2 (Effects of Life Prolongation on Liver Metastasis Model); format: in vivo, BALB/c-nu/nu male mice; human gastric cancer cells; details: oral, everyday for 42 days; for Average # of survival time: control 63.4 days; for ILS (%) (increase of life span): vs control, 120 days observation
Experimental: Effects of life prolongation were assessed using a liver metastasis model system consisting of BALB/c-nu/nu male mice (seven weeks old) each of which had been transplanted in the spleen thereof with 1×10^6 cells/mouse of TMK-1 (human gastric cancer) cells.
Specific experimental procedures were carried out by modifying the method proposed by Morikawa et al. in Cancer Research, 48, 1943-1948 (1988). Described specifically, cells which had been cultured in vitro were collected with 0.25%(w/v) trypsin-0.2%(w/v) EDTA and were then washed with a physiological phosphate buffer. The cells were next counted, followed by dilution to 1×10^6 cells/50 μl. Under anesthetization with 30 mg/kg of "Nembutal", each of the mice was incised at its left abdominal region and the spleen was then pulled out. The cell suspension of 10^6 cells/50 μl which had been prepared above was injected in an amount of 50 μl into the spleen by a syringe fitted with a 28-gauge injection needle. After the mouse was left over for 2 minutes, the blood vessel to the spleen was tied at two positions by ligating clips, respectively, and the spleen was cut off. The excised abdominal region was closed with a suturing stapler. Compound No. 29 of the present invention, in a form dissolved in distilled water, was orally administered everyday for 42 days from the day following the transplant. Using the increase of life span (ILS%) of a control as a reference, an assessment was conducted by observing the mouse for 120 days after the transplant of the cells to confirm its survival. The increase of life span (ILS%) was calculated in accordance with the following formula. [formula]

[4] = inhibition of [6-^3H]thymine formation from [6-^3H]thymidine, 37° C., 5 minutes, pH 7.4, read-out: IC50

Question: With N#Cc1ccc(O)[nH]c1=O [3-Cyano-2,6-dihydroxypyridine, reference compound] as the molecule, how does the IC50 [1, 4] read?
Answer: 130 µM

Question: Cc1cn(COCCO)c(=O)[nH]c1=O [Acyclothymidine, reference compound] was tested. Which IC50 [1, 4] did it give?
Answer: > 1000 µM

Question: How did the “Number of metastasized mice” value ([2]; 18.4 mg/kg/day) turn out when N=C1CCCN1Cc1[nH]c(=O)[nH]c(=O)c1Cl [Compound 29, 5-chloro-6-(1-(2-iminopyrrolidinyl)-methyl)uracil hydrochloride] was run?
Answer: 2/6

Question: What about the “Number of metastasized mice” value ([2]; 36.9 mg/kg/day) of the same molecule?
Answer: 1/6

Question: And the “Metastasis inhibition rate (%)” value ([2]; 18.4 mg/kg/day)?
Answer: 50%

Question: And the “Metastasis inhibition rate (%)” value ([2]; 36.9 mg/kg/day)?
Answer: 75%

Question: What about the “Average # of survival time” value ([3]; 50 mg/kg/day, N = 8) of the same molecule?
Answer: 88.5 days

Question: What about the “ILS (%) (increase of life span)” value ([3]; 50 mg/kg/day) of the same molecule?
Answer: 39.6%

Question: And the “Average # of survival time” value ([3]; 100 mg/kg/day, N = 9)?
Answer: 90.8 days

Question: What about the “ILS (%) (increase of life span)” value ([3]; 100 mg/kg/day) of the same molecule?
Answer: 43.2%

Question: For N=C(N)NCc1[nH]c(=O)[nH]c(=O)c1Cl [Compound 68, 5-chloro-6-(1-guanidino)methyluracil hydrochloride], which IC50 [1, 4] is on record?
Answer: 0.27 µM

Question: For Cc1c(CN2CCCC2=N)[nH]c(=O)[nH]c1=O [Compound 32], which IC50 [1] is on record?
Answer: 0.12 µM

Question: Which IC50 [1, 4] does the source give for N#Cc1c(CSC(=N)N)[nH]c(=O)[nH]c1=O [Compound 56, 2-(5-cyanouracil-6-ylmethyl)isothiourea hydrochloride] here?
Answer: 0.1 µM

Question: How did the IC50 [1] turn out when CN1CCN(Cc2[nH]c(=O)[nH]c(=O)c2Cl)C1=N [Compound 34] was run?
Answer: 0.046 µM

Question: How did the IC50 [1] turn out when N#Cc1c(CN2CCCC2=N)[nH]c(=O)[nH]c1=O [Compound 33, 5-cyano-6-(1-(2-iminopyrrolidinyl)methyl)uracil] was run?
Answer: 0.017 µM

Question: For O=c1[nH]c(CN2CCCC2)c(I)c(=O)[nH]1 [Compound 3], which IC50 [1, 4] is on record?
Answer: 1.3 µM

Question: Which IC50 [1, 4] does the source give for CC(=N)NCc1[nH]c(=O)[nH]c(=O)c1Cl [Compound 73, N-(5-chlorouracil-6-ylmethyl)-acetamidine hydrochloride] here?
Answer: 1.5 µM

Question: For O=c1[nH]c(Cn2ccnc2)c(Cl)c(=O)[nH]1 [Compound 51, 5-chloro-6-(1-imidazolylmethyl)uracil hydrochloride], which IC50 [1, 4] is on record?
Answer: 1 µM

Question: How did the IC50 [1, 4] turn out when O=c1[nH]c(CN2CCC2)c(Cl)c(=O)[nH]1 [Compound 6, 5-chloro-6-(1-azetidinylmethyl)uracil] was run?
Answer: 2.6 µM

Question: For N=C1NCCN1Cc1[nH]c(=O)[nH]c(=O)c1Br [Compound 48, 5-bromo-6-(1-(2-iminoimidazolidinyl)methyl) uracil], which IC50 [1] is on record?
Answer: 0.03 µM

Question: With O=c1[nH]c(CN2CCCC2)c(Br)c(=O)[nH]1 [Compound 2, 5-bromo-6-(1-pyrrolidinylmethyl)uracil] as the molecule, how does the IC50 [1, 4] read?
Answer: 0.51 µM

Question: Which IC50 [1, 4] does the source give for CNC(=N)SCc1[nH]c(=O)[nH]c(=O)c1Cl [Compound 57] here?
Answer: 0.15 µM

Question: With O=c1[nH]c(CN2C=NCC2)c(Cl)c(=O)[nH]1 [Compound 50, 5-chloro-6-(2-imidazolin-1-ylmethyl)-uracil hydrochloride] as the molecule, how does the IC50 [1, 4] read?
Answer: 1.2 µM

Question: How did the IC50 [1, 4] turn out when O=c1[nH]c(CN2CCCC2)c(Cl)c(=O)[nH]1 [Compound 1, 5-chloro-6-(1-pyrrolidinylmethyl)uracil] was run?
Answer: 2.2 µM

Question: For Cn1ccn(Cc2[nH]c(=O)[nH]c(=O)c2Cl)c1=N [Compound 20], which IC50 [1] is on record?
Answer: 0.24 µM
